These results are taken from patent US4260551A, “Polyprenyl derivatives” (Sankyo Company Limited, priority 1979, dated 1981).

Data set [1] has as its system male mice (ddY strains), reserpine ulcer. The data set is described as follows: Anti-reserpine ulcer activity. It is filed as in vivo. Particulars: Mus musculus, ip, 18 h, i.p., 5 mice, reserpine 10 mg/kg s.c., read-out: Inhibitory Ratio (ulcer area). The procedure:
The test was carried out in accordance with the method described by C. Blackmann, D. S. Campion and F. N. Fastier in British Journal of Pharmacology and Chemotherapy, vol. 14, 112 (1959), which is as follows:
The test compound was intraperitoneally administered to male mice (ddY strains, body weight: 28-33 g), and, 30 minutes later, reserpine was subcutaneously administered in the dose of 10 mg/kg. After 18 hours from the reserpine administration, the animal was sacrificed, and the stomach was isolated. This stomach was inflated with 2 ml of 0.5% formalin and was fixed. Then, the stomach was opened by cutting along the greater curvature, and the ulcer area*^(1) was measured with a stereoscopic microscope. The ulcer areas of the treated group and the control group were compared, and the inhibitory ratios were calculated.
*(1) ulcer area (mm^2): sum of each ulcer area (longitude×latitude).
The anti-reserpine ulcer activity shown when the test compound was intraperitoneally administered is set out in Table 1.

The subject of data set [2] is male rats (Donryu strain), cysteamine duodenal ulcer. The data set is described as follows: Anti-cysteamine duodenal ulcer activity. It is filed as in vivo, rat. Particulars: for Duodenal ulcer index: score 0-5, control 2.45. The procedure: The test was carried out in accordance with the method described by H. Selye and S. Szabo in Nature, vol. 244, 458 (1973), which is as follows. Male rats (Donryu strain, body weight: 200-220 g) had been fasted overnight, were orally treated with 300 mg/kg of cysteamine to induce duodenal ulcer. The test compounds were orally administered four times, that is, for two days prior to, immediately before and on the day next to the treatment of cysteamine. The animals were killed two days after the treatment of cysteamine, and the duodenal ulcer index*^(3) was determined. The duodenal ulcer indices of the treated group and the control group were compared, and the inhibitory ratios were calculated. |^(*3) Duodenal ulcer index: Ulcer of each animal was |scored according to the |following criteria. |0: no lesion |1: hemorrhagic spots |2: product of longitudinal and latitudinal diameters |(S) ≤ 16 mm^2 |3: product of longitudinal and latitudinal diameters |(S) ≤ 16 mm^2, 16 < (s) ≤ 25 |4: product of longitudinal and latitudinal diameters |(S) ≤ 16 mm^2, (s) > 25 mm^2 |5: perforated ulcer The anti-cysteamine duodenal ulcer activity shown when the compound was orally administered is set out in Table 3.

The subject of data set [3] is male rats (Donryu strain), stress ulcer. The data set is described as follows: Anti-stress ulcer activity (restraint-immersion). It is filed as in vivo, rat. The settings on record: for Ulcer index: control 22.3. The procedure: The test was carried out in accordance with the method described by K. takagi and S. Okabe in The Japanese Journal of Pharmacology, vol. 18, 9 (1968), which is as follows:
Male rats (Donryu strain, body weight: 200-220 g) were placed under restraint in a stress cage and immersed vertically in the water bath kept at 23°±1° C. to the height of the xiphoid of the animal. After restraint-immersion for 8 hours, the animals were sacrificed. The stomach was fixed with formalin and measured in its ulcer index *^(2). The ulcer indices of the treated group and the control group were compared, and the inhibitory ratios were calculated. The test compound was orally administered for 3 days prior to and immediately before the restraint-immersion.
*(2) ulcer index (mm): sum of the length of each linear ulcer.
The anti-stress ulcer activity shown when the test compound was orally administered is set out in Table 2.

The conditions of data set [4]: Arch. int. Pharmacodyn., 1964, 147, 113; cited from earlier work.
Data set [5] relates to Donryu strain male rat. The data set is described as follows: Acute toxicity, Donryu strain male rat. It is filed as in vivo. Particulars: 1,000 mg/kg orally given. The source says: (§1) The acute toxicity of the compound A is set out in Table 4.
Data set [6] has as its system ddY strain male mouse. Nature of the data set: Acute toxicity, ddY strain male mouse. It is filed as in vivo. The settings on record: 5,000 mg/kg orally given.
Source text: as §1

The mark [7] stands for this setting: 100 mg/kg/day × 4, p.o., Compound A marked *significant inhibition, probability less than 0.05.
The mark [8] stands for this setting: 300 mg/kg/day × 4, p.o., Compound A marked *significant inhibition, probability less than 0.05.

On to `CC(C)=CCCC(=CCC/C(C)=C/CO)CO` [Compound M, (E,Z) & (E,E)7-hydroxymethyl-3,11-dimethyl-2,6,10-dodecatrien-1-ol], for which the inhibition in vivo at 77.8 mg/kg in data set [1] (77.8 mg/kg) was 60.1%.

Regarding `CCCCCCCCCCCC(=O)OC/C=C(\C)CC/C=C(/CC/C=C(\C)CCC=C(C)C)COC(=O)CCCCCCCCCCC` [Compound F, (E,Z,E)7-hydroxymethyl-3,11,15-trimethyl-2,6,10,14-hexadecatetraen-1-ol dilaurate], the inhibition in vivo at 220 mg/kg in data set [1] (220 mg/kg) was determined as 63.3%.

On to `NC(=O)CC[C@H](N)C(=O)O` [L-Glutamine, reference compound], for which, in data set [2] (1000 mg/kg/day × 4, p.o.), the “Inhibitory ratio (duodenal ulcer index)” value was 31 and the Duodenal ulcer index came to 1.70.

In the case of `CC(C)=CCC/C(C)=C/CCC(C)=CCCC(=CCC/C(C)=C/CO)CO` [Compound O, 7-Hydroxymethyl-3,11,15,19-tetramethyl-2,6,10,14,18-eicosapentaen-1-ol], in data set [1] (122 mg/kg), the inhibition in vivo at 122 mg/kg amounted to 74.2%.

Turning to `C/C(=C\CC/C(C)=C/CCC(=CCC/C(C)=C/CO)CO)CO` [Compound N, 7,15-Dihydroxymethyl-3,11-dimethyl-2,6,10,14-hexadecatetraen-1-ol], the inhibition in vivo at 105 mg/kg in data set [1] (105 mg/kg) stood at 64.5%.

Take `CC(C)=CCC/C(C)=C/CCC(C)=CCCC(=CCC/C(C)=C/COC(=O)c1ccccc1)COC(=O)c1ccccc1` [Compound Q, 7-Hydroxymethyl-3,11,15,19-tetramethyl-2,6,10,14,18-eicosapentaen-1-ol dibenzoate]: the inhibition in vivo at 193 mg/kg in data set [1] (193 mg/kg) was found to be 56.2%.

In the case of `CC(C)=CCC/C(C)=C/CC/C(=C/CC/C(C)=C/COC(=O)c1ccccc1)COC(=O)c1ccccc1` [Compound E, (E,Z,E)7-hydroxymethyl-3,11,15-trimethyl-2,6,10,14-hexadecatetraen-1-ol dibenzoate], the inhibition in vivo at 171 mg/kg in data set [1] (171 mg/kg) amounted to 64.5%.

As for `CC(C)=CCCC(C)=CCCC(C)=CCCC(=O)OC/C=C(\C)CCC=C(C)C` [Gefarnate, geranyl farnesylacetate, reference compound], the “Inhibitory ratio (ulcer index)” value is -13 in data set [3] (setting [7]) and -57 in data set [3] (300 mg/kg/day × 4, p.o.). The Ulcer index came out at 25.3 mm in data set [3] (100 mg/kg/day × 4, p.o.) and 35.0 mm in data set [3] (300 mg/kg/day × 4, p.o.). Further, the inhibition in vivo at 100 mg/kg in data set [1] was found to be 10%. Besides, in data set [2] (setting [8]), the “Inhibitory ratio (duodenal ulcer index)” value is 10. This compound also displayed a Duodenal ulcer index in data set [2] (300 mg/kg/day × 4, p.o.) of 2.20. For the same compound, in data set [4], the anti-ulcer activity entry is reported as “has an anti-ulcer activity”.

As for `CC(C)=CCC/C(C)=C/CC/C(=C\CC/C(C)=C\CO)CO` [Compound J, (Z,E,E)7-hydroxymethyl-3,11,15-trimethyl-2,6,10,14-hexadecatetraen-1-ol], the inhibition in vivo at 100 mg/kg in data set [1] turned out to be 49.4%.

For the compound `CC(C)=CCCC(=CCCC(C)=CCC/C(C)=C/CO)CO` [Compound L, (E,E,E), (E,Z,E), (E,E,Z) & (E,Z,Z)11-hydroxymethyl-3,7,15-trimethyl-2,6,10,14-hexadecatetraen-1-ol], the inhibition in vivo at 100 mg/kg in data set [1] is 55.3%.

As for `CC(C)=CCC/C(C)=C/CC/C(=C\CC/C(C)=C/CO)CO` [Compound H, (E,E,E)7-hydroxymethyl-3,11,15-trimethyl-2,6,10,14-hexadecatetraen-1-ol], the inhibition in vivo at 100 mg/kg in data set [1] worked out at 57%.

For `CC(C)=CCC/C(C)=C/CC/C(=C/CC/C(C)=C/CO)CO` [Compound A, (E,Z,E)7-hydroxymethyl-3,11,15-trimethyl-2,6,10,14-hexadecatetraen-1-ol], the Death/Survival in data set [5] and in data set [6] was 0/5 in each case. The “Inhibitory ratio (ulcer index)” value in data set [3] (10 mg/kg/day × 4, p.o.) is on record as 17; in data set [3] (30 mg/kg/day × 4, p.o., *significant inhibition, probability less than 0.05), 37; in data set [3] (setting [7]) it was 43. Further, the Ulcer index in data set [3] (10 mg/kg/day × 4, p.o.) is given as 18.5 mm; in data set [3] (30 mg/kg/day × 4, p.o.) it was 13.8 mm; in data set [3] (100 mg/kg/day × 4, p.o.), 12.7 mm. In addition, the inhibition in vivo at 100 mg/kg in data set [1] is 68.4%. In addition, the “Inhibitory ratio (duodenal ulcer index)” value in data set [2] (100 mg/kg/day × 4, p.o.) came to 18; in data set [2] (setting [8]), 34. Also, the Duodenal ulcer index was 2.00 in data set [2] (100 mg/kg/day × 4, p.o.) and 1.56 in data set [2] (300 mg/kg/day × 4, p.o.).

For `CC(C)=CCC/C(C)=C/CCC(=CCCC(C)=CCO)CO` [Compound C, (E,Z,E), (E,E,E), (Z,Z,E) & (Z,E,E)7-hydroxymethyl-3,11,15-trimethyl-2,6,10,14-hexadecatetraen-1-ol], the inhibition in vivo at 100 mg/kg in data set [1] came to 59%.

With `CC(C)=CCC/C(C)=C/CCC(=CCC/C(C)=C/CO)CO` [Compound B, (E,Z,E) & (E,E,E)7-hydroxymethyl-3,11,15-trimethyl-2,6,10,14-hexadecatetraen-1-ol], the inhibition in vivo at 100 mg/kg in data set [1] amounted to 65%.

With `CC(=O)OC/C=C(\C)CCC=C(CCC=C(C)CC/C=C(\C)CCC=C(C)C)COC(C)=O` [Compound P, 7-Hydroxymethyl-3,11,15,19-tetramethyl-2,6,10,14,18-eicosapentaen-1-ol diacetate], the inhibition in vivo at 150 mg/kg in data set [1] (150 mg/kg) stood at 45.7%.

For the compound `CC(=O)OC/C=C(\C)CC/C=C(\CC/C=C(\C)CCC=C(C)C)COC(C)=O` [Compound I, (E,E,E)7-hydroxymethyl-3,11,15-trimethyl-2,6,10,14-hexadecatetraen-1-ol diacetate], the inhibition in vivo at 127 mg/kg in data set [1] was 64.5%.

Consider `COC/C=C(\C)CC/C=C(/CC/C=C(\C)CCC=C(C)C)COC` [Compound G, (E,Z,E)7-hydroxymethyl-3,11,15-trimethyl-2,6,10,14-hexadecatetraen-1-ol dimethyl ether], for which the inhibition in vivo at 109 mg/kg in data set [1] (109 mg/kg) was 45%.

As for `CC(=O)OC/C=C(\C)CC/C=C(/CC/C=C(\C)CCC=C(C)C)COC(C)=O` [Compound D, (E,Z,E)7-hydroxymethyl-3,11,15-trimethyl-2,6,10,14-hexadecatetraen-1-ol diacetate], the inhibition in vivo at 127 mg/kg in data set [1] came to 54.2%.

As to `CC(C)=CCC/C(C)=C\CCC(=CCC/C(C)=C/CO)CO` [Compound K, (E,Z,Z) & (E,E,Z)7-hydroxymethyl-3,11,15-trimethyl-2,6,10,14-hexadecatetraen-1-ol], the inhibition in vivo at 100 mg/kg in data set [1] came to 58.7%.
